Assay results published in the NIST ThermoML archive (doi:10.1021/je300530z).

How the values were obtained:
[1] = wn = mass fraction of the nth substance listed; details: Liquid, Vibrating tube method
[2] = 100 kPa, Liquid, Vibrating tube method

CN(CCO)CCO [N-methyldiethanolamine] + O
mass density [kg/m3], [1]
Details	w1 = 0.5	w1 = 0.6	w1 = 0.7	w1 = 0.8
293.15 K, 101 kPa	1045.8	1052.6	1056.1	1055.5
303.15 K, 101 kPa	1039.6	1045.8	1048.8	1048.1
313.15 K, 101 kPa	1033	1038.6	1041.3	1040.5
323.15 K, 101 kPa	1026.1	1031.2	1033.6	1032.6
333.15 K, 101 kPa	1018.9	1023.6	1025.6	1024.6
343.15 K, 101 kPa	1011.4	1015.6	1017.4	1016.4
353.15 K, 101 kPa	1003.5	1007.4	1009	1007.9
363.15 K, 101 kPa	995.3	998.9	1000.4	999.3
373.15 K, 800 kPa	987	990.32	991.79	990.82
383.15 K, 800 kPa	978.16	981.18	982.65	981.74
393.15 K, 800 kPa	968.93	971.76	973.23	972.51
403.15 K, 800 kPa	959.28	962.08	963.68	963.09
413.15 K, 800 kPa	949.4	952.13	953.72	953.38
423.15 K, 800 kPa	939.06	941.91	943.63	943.53

OCCNCCO [diethanolamine] + O
mass density [kg/m3], [1]
Details	w1 = 0.5	w1 = 0.6	w1 = 0.7	w1 = 0.8
293.15 K, 101 kPa	1060.7	1073.1	1082.5	1089.6
303.15 K, 101 kPa	1055.5	1067.4	1076.5	1083.6
313.15 K, 101 kPa	1050	1061.4	1070.3	1077.4
323.15 K, 101 kPa	1044.1	1055.2	1064	1070.9
333.15 K, 101 kPa	1037.9	1048.6	1057.3	1064.2
343.15 K, 101 kPa	1031.4	1041.9	1050.5	1057.4
353.15 K, 101 kPa	1024.51	1034.7	1043.5	1050.5
363.15 K, 101 kPa	1017.38	1027.3	1036.1	1043.1
373.15 K, 800 kPa	1010.04	1020	1028.87	1035.98
383.15 K, 800 kPa	1002.15	1012.14	1020.89	1028.08
393.15 K, 800 kPa	994.94	1003.87	1012.73	1020.14
403.15 K, 800 kPa	985.63	995.45	1004.18	1012.1
413.15 K, 800 kPa	976.68	986.55	995.42	1003.23
423.15 K, 800 kPa	967.44	977.38	986.45	995.43

CN(CCO)CCO [N-methyldiethanolamine]
[2]
Details	mass density [kg/m3]
293.15 K	1039.9
303.15 K	1032.4
313.15 K	1024.9
323.15 K	1017.2
333.15 K	1009.5
343.15 K	1001.7
353.15 K	993.9
363.15 K	986
373.15 K	978.28
383.15 K	970.22
393.15 K	962.03
403.15 K	953.71
413.15 K	945.29
423.15 K	936.81
